Paper PMC3573960 (Molecular Neurodegeneration, 2012)
Where two headings read alike, the source gives them in different places. Marks after values point to notes of the source that are not given here.

Experiments:
Tg2576 mice [1] = experiment: Tolerability in chronic treatment study (body weight, organs, survival); assay type: in vivo, mouse
Procedure: (§1) Male Tg2576 and WT mice were both derived from crosses of male Tg2576 mice and female B6SJLF1 mice (Taconic) and were singly housed upon arrival. […] Some animals were euthanized as described above. For histological studies, a subset of mice were euthanized by CO2 asphyxiation and transcardially perfused with cold 0.9% NaCl. The right hemispheres were immersion fixed in fresh 4% paraformaldehyde in 0.1 M phosphate buffer, pH 7.4 for 1 h, transferred to a 15% sucrose cryoprotectant for 24 h at room temperature, and on the next day, frozen in isopentane chilled by dry ice for 1 min. The left cerebral hemisphere was cut into 2 pieces, weighed, and frozen.

Tg2576 mice [2] = conditions: mean (sem)
Text: (§2) Male Tg2576 and WT mice were both derived from crosses of male Tg2576 mice and female B6SJLF1 mice (Taconic) and were singly housed upon arrival. […] Some animals were euthanized as described above. For histological studies, a subset of mice were euthanized by CO2 asphyxiation and transcardially perfused with cold 0.9% NaCl. […] The left cerebral hemisphere was cut into 2 pieces, weighed, and frozen.
The right hemispheres were sectioned at 20 μm in the sagittal plane. From 12 levels, 7 sections were retained and processed. Aβ plaque load was quantified in sections doubly stained by immunohistochemistry with 6E10 antibody (N-terminal human Aβ, aa 1–16) and by ThioflavinS. Astrocytes were immunostained using a primary rabbit polyclonal antibody against GFAP (Dako, Glostrup, Denmark) and a fluorescently labelled secondary Cy2 antibody (Jackson ImmunoResearch Laboratories, West Grove, PA). Activated microglia were immunostained using a rat anti-murine CD11b primary antibody (AbD Serotec, Kidlington, UK) and a fluorescently labelled secondary Cy3 antibody (Jackson ImmunoResearch Laboratories). Astrocytes and microglia were labelled in a double incubation and sections were counterstained with DAPI to visualize cell nuclei.
Hippocampus and neocortex were measured separately, and the percent area of immunoreactivity or ThioflavinS staining per brain region was evaluated using automated image analysis software (Image Pro Plus, v. 6.2, Media Cybernetics, Bethesda, MD). Numbers and sizes of Aβ deposits were also counted automatically. Measurements from 5 sections per mouse were averaged and the individual mouse average was used to calculate the group means.

γ-secretase [3] = experiment: APP CTF accumulation in H4-APP751 cell lysates (Western blot); assay type: cell-based, human; conditions: H4-APP751 cells, 16 h
Text: Cells were lysed in situ and the resulting lysate cleared of nuclei by centrifugation, as described elsewhere. Samples were fractionated by SDS-PAGE on a 12% NuPage gel (Invitrogen), transferred to a nitrocellulose membrane, and immunoblotted with an anti-APP-CTF antibody (Sigma-Aldrich).

[4] = Measurement of EVP-0015962 in brain (LC-MS/MS); assay type: in vivo, mouse; conditions: for range of brain concentrations: C57BL/6 mice, 3 or 7 days; for concentration at 50 weeks: male, mouse, brain (cerebellum), oral
Procedure: Mice were placed on the food formulations for 3 or 7 days and were euthanized, as described above, approximately 1 h after the onset of the light cycle.
as §2
Cerebellums were homogenized in a Mini-BeadBeater (Biospec Products, Inc., Bartlesville, OK).

Tg2576 mice [5] = experiment: Amorfix A4 assay of aggregated Aβ in Tg2576 mouse brain; assay type: in vivo; conditions: 50 weeks
Procedure: as §1
The A4 assay (Amorfix Life Sciences, Toronto, Canada) was employed to quantify levels of aggregated Aβ in Tg2576 mouse brains. […] Aβ was detected by immunoassay following incubation at 37°C with europium-fluorescent beads coupled to the mouse monoclonal 4G10 antibody (N-terminal Aβ, aa 1–17) and magnetic beads coupled to the antibodies 1F8 (C-terminal Aβ, aa 3–40) and 2H12 (C-terminal Aβ, aa 3–42). […] The intensity of the europium fluorescent signal was measured using time resolved fluorescence on each sample in triplicate and was taken as being directly proportional to the concentration of aggregated Aβ in the sample. […]

γ-secretase [6] = experiment: H4-APP751 cell-based assay for secreted Aβ peptides (sandwich ELISA); set-up: species or system human; conditions: H4-APP751 cells, up to 3 μM
Procedure: Human neuroglioma H4 cells (ATCC, Manassas, VA) were transfected with a pcDNA3.1 (Invitrogen, Carlsbad, CA) plasmid expressing human wild type APP751 cDNA; and a stable cell line was generated using G418 (Invitrogen) selection [55]. Prior to experimentation, H4-APP751 cells were maintained in Dulbecco’s modified Eagle’s high glucose medium with 10% fetal bovine serum, 1% penicillin-streptomycin, 2 mM L-glutamine, and 0.4 mg/mL G418. All culture reagents were from Invitrogen.
Plates were incubated overnight (16–18 h) and supernatant was removed for quantification of Aβ peptides by sandwich ELISA. Cytotoxicity was evaluated using CellTiter 96® AQueous One Solution Cell Proliferation Assay (MTS Assay, Promega, Madison, WI) according to the manufacturer’s protocol.
Aβ peptide levels were quantified by sandwich ELISA. […]
Freshly collected samples of cultured cell supernatant or synthetic peptides (American Peptide Co., Sunnyvale, CA or California Peptide Research, Inc., Napa, CA) for standard curves were diluted with media, and loaded into anti-Aβ antibody-coated plates and incubated at 4°C for about 24 h. Aβ peptides were detected with the 4G8 antibody (Aβ, aa 17–24) conjugated to horseradish peroxidase (Covance, Inc., Princeton, NJ), and SureBlue 3,3’,5,5’-tetramethylbenzidine (TMB) peroxidase substrate (KPL, Inc., Gaithersburg, MA). […]

[7] = MTS cytotoxicity assay in H4-APP751 cells; conditions: human
Procedure: Cytotoxicity was evaluated using CellTiter 96® AQueous One Solution Cell Proliferation Assay (MTS Assay, Promega, Madison, WI) according to the manufacturer’s protocol.

Measured LogD = assay type: physicochemical

O=C(O)[C@H](CC1CCC1)c1cc(Cl)c(OCC(F)(F)F)c(-c2ccc(C(F)(F)F)cc2)c1 [EVP-0015962, (R)-2-(5-chloro-6-(2,2,2-trifluoroethoxy)-4’-(trifluoromethyl)biphenyl-3-yl)-3-cyclobutylpropanoic acid]
mortality (percent of group lost) (Tg2576 mice [1]; Tg2576 mice, 60 mg/kg/day, 50 weeks): 25% | body weight among the treatment groups (Tg2576 mice [1]; Tg2576 mice, 20 or 60 mg/kg/day, 50 weeks): no significant differences | effects on intestinal goblet cells or any other organ system examined (Tg2576 mice [1]; satellite animals, up to 60 mg/kg/day, 11 weeks): no evidence of effects | 6E10 Aβ plaque Number/mm^2 (Tg2576 mice [2]; hippocampus, 20 mg/kg/day): 61.0 (12.2)* percent of control | 6E10 Aβ plaque Size (μm^2) (Tg2576 mice [2]; hippocampus, 20 mg/kg/day): 99.4 (15.7) percent of control | 6E10 Aβ plaque percent area (Tg2576 mice [2]; hippocampus, 20 mg/kg/day): 62.1 (13.2)* percent of control | ThioflavinS Aβ plaque Number/mm^2 (Tg2576 mice [2]; hippocampus, 20 mg/kg/day): 55.2 (15.6)* percent of control | ThioflavinS Aβ plaque Size (μm^2) (Tg2576 mice [2]; hippocampus, 20 mg/kg/day): 56.5 (16.3) percent of control | ThioflavinS Aβ plaque percent area (Tg2576 mice [2]; hippocampus, 20 mg/kg/day): 40.7 (16.9)** percent of control | 6E10 Aβ plaque Number/mm^2 (Tg2576 mice [2]; hippocampus, 60 mg/kg/day): 53.9 (16.8)* percent of control | 6E10 Aβ plaque Size (μm^2) (Tg2576 mice [2]; hippocampus, 60 mg/kg/day): 104.1 (11.6) percent of control | 6E10 Aβ plaque percent area (Tg2576 mice [2]; hippocampus, 60 mg/kg/day): 53.1 (15.2)* percent of control | ThioflavinS Aβ plaque Number/mm^2 (Tg2576 mice [2]; hippocampus, 60 mg/kg/day): 50.7 (12.8)* percent of control | ThioflavinS Aβ plaque Size (μm^2) (Tg2576 mice [2]; hippocampus, 60 mg/kg/day): 58.9 (27.0) percent of control | ThioflavinS Aβ plaque percent area (Tg2576 mice [2]; hippocampus, 60 mg/kg/day): 27.3 (6.5)** percent of control | 6E10 Aβ plaque Number/mm^2 (Tg2576 mice [2]; neocortex, 20 mg/kg/day): 65.2 (8.8) percent of control | 6E10 Aβ plaque Size (μm^2) (Tg2576 mice [2]; neocortex, 20 mg/kg/day): 105.5 (8.8) percent of control | 6E10 Aβ plaque percent area (Tg2576 mice [2]; neocortex, 20 mg/kg/day): 69.2 (9.7) percent of control | ThioflavinS Aβ plaque Number/mm^2 (Tg2576 mice [2]; neocortex, 20 mg/kg/day): 64.3 (8.0) percent of control | ThioflavinS Aβ plaque Size (μm^2) (Tg2576 mice [2]; neocortex, 20 mg/kg/day): 87.8 (12.2) percent of control | ThioflavinS Aβ plaque percent area (Tg2576 mice [2]; neocortex, 20 mg/kg/day): 64.3 (14.3) percent of control | 6E10 Aβ plaque Number/mm^2 (Tg2576 mice [2]; neocortex, 60 mg/kg/day): 71.3 (15.0) percent of control | 6E10 Aβ plaque Size (μm^2) (Tg2576 mice [2]; neocortex, 60 mg/kg/day): 88.5 (5.4) percent of control | 6E10 Aβ plaque percent area (Tg2576 mice [2]; neocortex, 60 mg/kg/day): 65.3 (16.3) percent of control | ThioflavinS Aβ plaque Number/mm^2 (Tg2576 mice [2]; neocortex, 60 mg/kg/day): 59.6 (14.1) percent of control | ThioflavinS Aβ plaque Size (μm^2) (Tg2576 mice [2]; neocortex, 60 mg/kg/day): 58.1 (10.6)* percent of control | ThioflavinS Aβ plaque percent area (Tg2576 mice [2]; neocortex, 60 mg/kg/day): 29.9 (7.3)* percent of control | Full length APP (γ-secretase [3]; 1 nM to 10 μM): not altered | accumulation of APP α- or β-CTFs (γ-secretase [3]; concentrations up to 10 μM): did not cause the accumulation | range of brain concentrations ([4]; food formulation 20 mg/kg/day): 1.5 to 3.1 µM | range of brain concentrations ([4]; food formulation 60 mg/kg/day): 4.9 to 9.7 µM | accumulation or cytochrome P450 enzyme induction (from brain concentrations) ([4]; Tg2576 mice, 50 weeks vs short-term treatments): did not demonstrate accumulation or cytochrome P450 enzyme induction | concentration at 50 weeks ([4]; Tg2576 mice, 20 mg/kg/day in food): 2.5 ± 0.2 µM | concentration at 50 weeks ([4]; Tg2576 mice, 60 mg/kg/day in food): 8.3 ± 0.6 µM | oral bioavailability ([4]; mice): orally bioavailable | reduction in aggregated Aβ (Tg2576 mice [5]; 20 mg/kg/day): 19% | reduction in aggregated Aβ compared to the control diet group (Tg2576 mice [5]; 60 mg/kg/day): 73% | levels of AβTotal (γ-secretase [6]): remained unchanged | IC50 [7]: 5.56 ± 0.51 µM | logD (Measured LogD): 3.88
